Source: patent US6346514B1, “Pharmaceutical lysine-containing polypeptide compositions and methods of use thereof” (priority 1991, dated 2002)

Test system: blood lymphoid cells and immune organs after irradiation
Test: Effect on immune system of irradiated guinea pigs
Type: in vivo
Procedure: Twenty-two male guinea pigs were used in the following test.
Guinea pigs were exposed to irradiation in a total. does 1Gy.target-skin distance—70 cm; time of exposure—2′48″ Device: 180 kV; 15 mA; filter 0.5 Cu Treatment: i.m. single daily 1 microg. HM897 per kg for 5 days.
Treatment of controls: normal saline 0.5 ml i.m. single daily for 5 days.
Leukocyte and lymphocyte levels were measured in peripheral blood on the 7th, 14th, 21st, 36th and 44th day after irradiation.
In a second test 40 male guinea pigs were used, and the same regimen was followed.
There were two controls—irradiated and non-irradiated. Parameters were evaluated on the 8th and 21st days after irradiation. Tested parameters: clinical blood examination, non-specific resistance by lysosomal cationic test; “active” T-lymphocytes and total T-lymphocytes (E-RFC), B-lymphocytes (EAC-RFC) were measured in blood, thymus, lymph nodes, spleen and red bone marrow. Blood lymphocyte functional activity was evaluated by leukocyte migration inhibition (LMI) with ConA. Histological examinations of thymus, spleen, lymph nodes, bone marrow and adrenals were carried out.

Substance: Thr-Ala-Glu-Glu-Lys (TAEEK) [HM897]
- leukocyte and lymphocyte levels in peripheral blood (irradiation 1 Gy, 1 microg per kg i.m. daily for 5 days, days 7-44): restoration of leukocyte and lymphocyte levels
- peripheral blood lymphocytes and neutrophil functional activity (second test, irradiated animals): restored peripheral blood lymphocytes and neutrophil functional activity
- T-lymphocyte maturation and migration (second test, irradiated animals, early terms of observation): accelerates T-lymphocyte maturation and their migration to peripheral immune organs
- proliferation and differentiation in organs of the immune system (second test, irradiated animals, later stage of the study): enhancement of proliferation and differentiation in both central and peripheral organs of the immune system
